# Experimental data from patent US20240109972A1, “ANTIBODY AND TAXANE COMBINATION THERAPY” (Genmab A/S, priority 2020, published 2024).
# Tested on: solid malignant tumors
# Test: GEN1046 Phase I dose escalation (NCT03917381), response by RECIST v1.1
# Assay type: in vivo, human
# Description: The resistance to, failure to respond to and/or relapse from treatment with a binding agent of the invention and/or other therapeutic agent(s) may be determined according to the Response Evaluation Criteria In Solid Tumors; version 1.1 (RECIST Criteria v1.1).
# The “best overall response” is the best response recorded from the start of the treatment until disease progression/recurrence (the smallest measurements recorded since the treatment started will be used as the reference for PD). Subjects with CR or PR are considered to be objective response. Subjects with CR, PR or SD are considered to be in disease control. Subjects with NE are counted as non-responders. […]
# Clinical trial on GCT1046-01 (ClinicalTrials.gov Identifier: NCT03917381) was designed as a two-part trial, including an ongoing dose escalation part and a planned expansion part.
# The trial consists of 2 parts; a First-in-Human (FIH) dose escalation (Phase I) and an expansion (Phase 11a).
# For dose escalation, subject was required to be a man or […] and was required to have measurable disease according to RECIST 1.1.
# [1] = six patients with NSCLC, prior checkpoint immunotherapy
substance,measurement,setting,value
"GEN1046: PD-L1×4-1BB bispecific antibody: PD-L1-547-FEAL combined with CD137-009-HC7LC2-FEAR (SEQ ID NOs: 1, 5, 21, 19; 8, 12, 22, 20)","Confirmed PD (Progressive Disease), patients","800 mg (N 9), Oct. 12, 2020",2
same,"Confirmed PR (Partial Response), patients","800 mg (N 9), Oct. 12, 2020",0
same,"Confirmed SD (Stable Disease), % of patients","800 mg (N 9), Oct. 12, 2020",55.6%
same,"Confirmed SD (Stable Disease), patients","800 mg (N 9), Oct. 12, 2020",5
same,"Disease Control (PR + PR + SD) Rate, %","800 mg (N 9), Oct. 12, 2020",55.6%
same,"Disease Control (PR + PR + SD) Rate, patients","800 mg (N 9), Oct. 12, 2020",5
same,"NE (Not Evaluable), % of patients","800 mg (N 9), Oct. 12, 2020",22.2%
same,"NE (Not Evaluable), patients","800 mg (N 9), Oct. 12, 2020",2
same,"Objective Response (CR + PR) Rate, patients","800 mg (N 9), Oct. 12, 2020",0
same,"PD (Progressive Disease), % of patients","800 mg (N 9), Oct. 12, 2020",22.2%
same,"PD (Progressive Disease), patients","800 mg (N 9), Oct. 12, 2020",2
same,"PR (Partial Response), patients","800 mg (N 9), Oct. 12, 2020",0
same,"CR (Complete Response), patients","1200 mg (N 4), Oct. 12, 2020",0
same,"Confirmed CR (Complete Response), patients","1200 mg (N 4), Oct. 12, 2020",0
same,"Confirmed Disease Control (PR + PR + SD) Rate, %","1200 mg (N 4), Oct. 12, 2020",75.0%
same,"Confirmed Disease Control (PR + PR + SD) Rate, patients","1200 mg (N 4), Oct. 12, 2020",3
same,"Confirmed NE (Not Evaluable), patients","1200 mg (N 4), Oct. 12, 2020",0
same,"Confirmed Objective Response (CR + PR) Rate, patients","1200 mg (N 4), Oct. 12, 2020",0
same,"Confirmed PD (Progressive Disease), % of patients","1200 mg (N 4), Oct. 12, 2020",25.0%
same,"Confirmed PD (Progressive Disease), patients","1200 mg (N 4), Oct. 12, 2020",1
same,"Confirmed PR (Partial Response), patients","1200 mg (N 4), Oct. 12, 2020",0
same,"Confirmed SD (Stable Disease), % of patients","1200 mg (N 4), Oct. 12, 2020",75.0%
same,"Confirmed SD (Stable Disease), patients","1200 mg (N 4), Oct. 12, 2020",3
same,"Disease Control (PR + PR + SD) Rate, %","1200 mg (N 4), Oct. 12, 2020",75.0%
same,"Disease Control (PR + PR + SD) Rate, patients","1200 mg (N 4), Oct. 12, 2020",3
same,"NE (Not Evaluable), patients","1200 mg (N 4), Oct. 12, 2020",0
same,"Objective Response (CR + PR) Rate, patients","1200 mg (N 4), Oct. 12, 2020",0
same,"PD (Progressive Disease), % of patients","1200 mg (N 4), Oct. 12, 2020",25.0%
same,"PD (Progressive Disease), patients","1200 mg (N 4), Oct. 12, 2020",1
same,"PR (Partial Response), patients","1200 mg (N 4), Oct. 12, 2020",0
same,"Partial responses, patients",ICI pre-treated NSCLC,2
same,"CR (Complete Response), patients","Total (N 61), Oct. 12, 2020",0
same,"Confirmed CR (Complete Response), patients","Total (N 61), Oct. 12, 2020",0
same,"Confirmed Disease Control (PR + PR + SD) Rate, %","Total (N 61), Oct. 12, 2020",(65.6%)
same,"Confirmed Disease Control (PR + PR + SD) Rate, patients","Total (N 61), Oct. 12, 2020",40
same,"Confirmed NE (Not Evaluable), % of patients","Total (N 61), Oct. 12, 2020",(11.5%)
same,"Confirmed NE (Not Evaluable), patients","Total (N 61), Oct. 12, 2020",7
same,"Confirmed Objective Response (CR + PR) Rate, %","Total (N 61), Oct. 12, 2020",(3.3%)
same,"Confirmed Objective Response (CR + PR) Rate, patients","Total (N 61), Oct. 12, 2020",2
same,"Confirmed PD (Progressive Disease), % of patients","Total (N 61), Oct. 12, 2020",(23.0%)
same,"Confirmed PD (Progressive Disease), patients","Total (N 61), Oct. 12, 2020",14
same,"Confirmed PR (Partial Response), % of patients","Total (N 61), Oct. 12, 2020",(3.3%)
same,"Confirmed PR (Partial Response), patients","Total (N 61), Oct. 12, 2020",2
same,"Confirmed SD (Stable Disease), % of patients","Total (N 61), Oct. 12, 2020",(62.3%)
same,"Confirmed SD (Stable Disease), patients","Total (N 61), Oct. 12, 2020",38
same,"Disease Control (PR + PR + SD) Rate, patients","Total (N 61), Oct. 12, 2020",40
same,"NE (Not Evaluable), % of patients","Total (N 61), Oct. 12, 2020",(11.5%)
same,"NE (Not Evaluable), patients","Total (N 61), Oct. 12, 2020",7
same,"Objective Response (CR + PR) Rate, %","Total (N 61), Oct. 12, 2020",(6.6%)
same,"Objective Response (CR + PR) Rate, patients","Total (N 61), Oct. 12, 2020",4
same,"PD (Progressive Disease), % of patients","Total (N 61), Oct. 12, 2020",(23.0%)
same,"PD (Progressive Disease), patients","Total (N 61), Oct. 12, 2020",14
same,"PR (Partial Response), % of patients","Total (N 61), Oct. 12, 2020",(6.6%)
same,"BOR Complete Response, (percent)","Total (n = 30), 3 Feb. 2020",(0)
same,"BOR Complete Response, patients","Total (n = 30), 3 Feb. 2020",0
same,"BOR Partial Response, (percent)","Total (n = 30), 3 Feb. 2020",(10)
same,"BOR Partial Response, patients","Total (n = 30), 3 Feb. 2020",3
same,"BOR Progressive Disease, (percent)","Total (n = 30), 3 Feb. 2020",(26.6)
same,"BOR Progressive Disease, patients","Total (n = 30), 3 Feb. 2020",8
same,"BOR Stable Disease, (percent)","Total (n = 30), 3 Feb. 2020",(63.3)
same,"BOR Stable Disease, patients","Total (n = 30), 3 Feb. 2020",19
same,"Partial responses, patients",ovarian cancer,1
same,Patients who maintained stable disease,[1],two
same,Patients with progressive disease,[1],two
same,Patients with unconfirmed PR,[1],two
same,"Partial responses, patients",triple negative breast cancer,1
